According to US6060485A, “Arylacetic amide derivative or salt thereof, and pharmaceutical comprising it” (SSP Co., Ltd., priority 1997, dated 2000):
Counter-ions that a name gives are not always drawn. Like-named read-outs stand apart in the source and are kept apart here.

Columns and labels:
[1] = tested on: carbachol-induced hypersialosis; test: Action against carbachol-induced hypersialosis (salivation, oral); type: in vivo, SD male rats; conditions: for ED50: Rattus norvegicus, read-out: Salivation inhibitory action ID50; for Selectivity: bladder over salivation, propiverine hydrochloride = 1.0; for Salivation inhibitory action / Bladder contraction inhibitory action: ratio of ID50 values
Protocol: Action against carbachol-induced hypersialosis Testing method
A test compound was orally administered to each of SD male rats weighing 100 to 150 g. Thirty minutes later, 0.1 mg/kg of carbachol was intraperitoneally administered. Immediately after the administration of carbachol, the rat was fixed by hands under non-anesthesia and under this condition, the saliva was wiped off with a cotton ball for 10 minutes. The weight of the saliva so obtained was measured.

[2] = tested on: acetylcholine-induced bladder contraction; test: Action against acetylcholine-induced bladder contraction (intraduodenal); type: in vivo, SD male rats; conditions: Rattus norvegicus, 2 h, read-out: Bladder contraction inhibitory action ID50
Protocol: Action against acetylcholine-induced bladder contraction Testing method
SD male rats weighing 230 to 390 g were each fixed on its back under intraperitoneal anesthesia with 500 mg/kg of urethane and 50 mg/kg of α-chloralose. Then, its bladder was exposed by midline abdominal incision. Into the top part of the bladder, a polyethylene tube filled with physiological saline was inserted and intracystic pressure was measured. Into the femoral vein, a venous cannula for administration of a drug was inserted, through which 10 μg/kg of acetylcholine were administered to induce bladder contraction. Then, acetylcholine was administered at intervals of 10 minutes. After the bladder contraction by acetylcholine became stable, the stomach was subjected to midline incision and the test compound was intraduodenally administered using an injection needle.
The bladder contraction was measured as a difference of intracystic pressure before and after the administration of acetylcholine.

[3] = SD male rats, oral, 30 minutes before carbachol 0.1 mg/kg i.p., saliva weight over 10 minutes
[4] = SD male rats, intraduodenal, acetylcholine 10 μg/kg i.v., intracystic pressure, observed 120 minutes

| Compound | ED50 [1, 3] [mg/kg] | Selectivity [1] | Salivation inhibitory action / Bladder contraction inhibitory action [1] | ED50 [2, 4] [mg/kg] | ED50 ([1]; po) [mg/kg] | ED50 [2] [mg/kg] |
| --- | --- | --- | --- | --- | --- | --- |
| CCCCOC(C(=O)NC1CCN(Cc2ccccc2)CC1)(c1ccccc1)C(C)C (centres unmarked) [Compound No. 4, N-(1-benzyl-4-piperidinyl)-2-butoxy-3-methyl-2-phenylbutanamide] | 56.6 | 6.2 | 5.8 | 9.8 |  |  |
| CCCOC(C(=O)OC1CCN(C)CC1)(c1ccccc1)c1ccccc1 [Propiverine hydrochloride, reference compound] | 9.2 | 1.0 | 0.9 | 9.9 |  |  |
| CCCOC(C(=O)NC1CCN(Cc2ccccc2)CC1)(c1ccccc1)C(C)C (centres unmarked) [compound 3] | 33.9 | 4.0 | 3.6 | 9.4 |  |  |
| CCCOC(C(=O)NC1CCN(Cc2ccccc2)CC1)(c1ccccc1)C1CC1 (centres unmarked) [compound 12] | 22.5 | 2.4 | 2.3 | 10 |  |  |
| CCN(CC)CC#CCOC(=O)C(O)(c1ccccc1)C1CCCCC1 (centres unmarked) [Oxybutynin hydrochloride, reference compound] |  | 1.1 | 1.0 |  | 3.5 | 3.4 |
